Data taken from ChEMBL document CHEMBL6127038, “How many organic small molecules might be used to treat COVID-19? From natural products to synthetic agents” (Eur J Med Chem, 2024).

Test system: SARS-CoV-2
Experiment: Antiviral activity against SARS CoV-2 infected in HEK293 cells overexpressing hACE2 assessed as inhibition of viral infection
Assay type: functional, organism-based
Settings: Severe acute respiratory syndrome coronavirus 2, HEK293

## NC(=O)CC[C@H](NC(=O)[C@H](Cc1ccc(O)cc1)NC(=O)[C@H](Cc1ccccc1)N1CCN(C(=O)[C@H](CC(=O)O)NC(=O)[C@@H](N)CCC(=O)O)CC1=O)C(N)=O
  IC50: 15 µM
